Data published in paper PMC6021502, “Cannabigerol Action at Cannabinoid CB1 and CB2 Receptors and at CB1–CB2 Heteroreceptor Complexes” (Frontiers in Pharmacology, 2018).

Experiments:
[1] = biological target: T1, SNAP-CB2R (Homo sapiens, UniProt P34972); experiment: Homogeneous HTRF competition binding in living HEK-293T cells (fluorophore-conjugated CM-157); details: living HEK-293T cells expressing SNAP-CB2R, 20 nM fluorescent ligand
T1 construct: host or cells: HEK-293T, transient transfection (PEI)
T1 sequence (P34972 whole entry): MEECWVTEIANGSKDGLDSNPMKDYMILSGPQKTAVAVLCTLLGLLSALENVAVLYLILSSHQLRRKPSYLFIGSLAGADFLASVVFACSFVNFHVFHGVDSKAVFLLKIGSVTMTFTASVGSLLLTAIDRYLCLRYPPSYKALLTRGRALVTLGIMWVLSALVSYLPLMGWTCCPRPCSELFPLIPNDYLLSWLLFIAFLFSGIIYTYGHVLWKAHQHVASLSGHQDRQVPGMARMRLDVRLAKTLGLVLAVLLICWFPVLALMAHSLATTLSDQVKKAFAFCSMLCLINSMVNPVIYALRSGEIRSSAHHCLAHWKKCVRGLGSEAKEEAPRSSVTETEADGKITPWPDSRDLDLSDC

[2] = biological target: T2, CB2R in a CB1–CB2 receptor heteromer context (Homo sapiens, UniProt P34972); experiment: Homogeneous HTRF competition binding in living HEK-293T cells expressing SNAP-CB2R and CB1R; details: 20 nM fluorescent ligand, read-out: Ki, HTRF competition of fluorophore-conjugated CM-157 in the presence of CB1R
T2 construct: host or cells: HEK-293T, transient co-transfection (PEI)
T2 sequence (P34972 whole entry): as above
T2 sequence (P21554 whole entry partner): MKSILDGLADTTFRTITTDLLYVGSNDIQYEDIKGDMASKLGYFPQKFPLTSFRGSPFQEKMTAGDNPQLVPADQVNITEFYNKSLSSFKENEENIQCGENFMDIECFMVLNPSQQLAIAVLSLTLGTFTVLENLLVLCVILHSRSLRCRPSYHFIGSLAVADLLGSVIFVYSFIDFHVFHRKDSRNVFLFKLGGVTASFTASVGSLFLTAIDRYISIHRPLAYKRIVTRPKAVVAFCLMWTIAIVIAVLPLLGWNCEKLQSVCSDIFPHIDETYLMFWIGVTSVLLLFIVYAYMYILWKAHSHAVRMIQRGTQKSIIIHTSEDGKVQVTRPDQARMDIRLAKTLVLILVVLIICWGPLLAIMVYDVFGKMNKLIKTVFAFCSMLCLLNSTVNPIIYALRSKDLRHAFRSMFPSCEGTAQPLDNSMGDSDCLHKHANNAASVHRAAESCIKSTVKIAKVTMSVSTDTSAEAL

[3] = biological target: T1, SNAP-CB2R; design: method as in Martínez-Pinilla et al., 2016; details: HTRF binding to CB2R; ref Martínez-Pinilla et al., 2016; read-out: KD used in the Cheng and Prusoff equation for homogeneous binding; cited from earlier work

## CC(C)(C)c1nc2cc(S(=O)(=O)c3ccnc(OCCCN)c3)ccc2n1CC1CCOCC1 [CM-157, 3-[[4-[2-tert-butyl-1-(tetrahydropyran-4-ylmethyl)benzimidazol-5-yl]sulfonyl-2-pyridyl]oxy]propan-1-amine, reference compound]
[1]
  Ki: 16 nM
[2]
  Ki: 19 nM
[3]
  Kd: 21 nM
